In patent publication US6133443A, “Optically active 1,4-dihydropyridine derivatives and process for the preparation thereof” (Mercian Corporation, priority 1996, dated 2000):

How the values were obtained:
physchem = conditions: deionized water
Protocol: (§1) The measurements were performed by mixing deionized water with a compound to be tested, subsequently stirring for 3 minutes using a electromagnetic vibrating stirrer, and determining a critical value (solubility) based on presence or absence of insoluble matter.

[1] = Test for solubility in water (deionized water, stirring 3 minutes, presence or absence of insoluble matter)
Protocol: as §1

solubility at 0.05 h [1] [µg/mL]	Compound	solubility at 0.05 h (physchem) [µg/mL]
–	COC(=O)C1=C(C)NC(C)=C(C(=O)OCCC[n+]2ccccc2)[C@H]1c1cccc([N+](=O)[O-])c1 [Example 2, 3-pyridiniumpropyl (4S)-1,4-dihydro-2,6-dimethyl-5-methoxycarbonyl-4-(3-nitrophenyl)-pyridine-3-carboxylate iodide]	≥ 1000
–	COC(=O)C1=C(C)NC(C)=C(C(=O)OCCC[n+]2ccncc2)[C@H]1c1cccc([N+](=O)[O-])c1 [Example 3, 3-pyraziniumpropyl (4S)-1,4-dihydro-2,6-dimethyl-5-methoxycarbonyl-4-(3-nitrophenyl)-pyridine-3-carboxylate iodide]	≥ 1000
–	COC(=O)C1=C(C)NC(C)=C(C(=O)OCCC[n+]2ccsc2)[C@H]1c1cccc([N+](=O)[O-])c1 [Example 4, 3-thiazoliumpropyl (4S)-1,4-dihydro-2,6-dimethyl-5-methoxycarbonyl-4-(3-nitrophenyl)-pyridine-3-carboxylate iodide]	≥ 1000
–	COC(=O)C1=C(C)NC(C)=C(C(=O)OCCC[n+]2ccccn2)[C@H]1c1cccc([N+](=O)[O-])c1 [Example 5, 3-pyridaziniumpropyl (4S)-1,4-dihydro-2,6-dimethyl-5-methoxycarbonyl-4-(3-nitrophenyl)-pyridine-3-carboxylate iodide]	≥ 1000
≥ 1000	COC(=O)C1=C(C)NC(C)=C(C(=O)OCCC[n+]2ccn(C)c2)[C@H]1c1cccc([N+](=O)[O-])c1 [Example 6, 3-(1-methylimidazolium)propyl (4S)-1,4-dihydro-2,6-dimethyl-5-methoxycarbonyl-4-(3-nitrophenyl)-pyridine-3-carboxylate iodide]	–
≥ 1000	COC(=O)C1=C(C)NC(C)=C(C(=O)OCCC[n+]2cccc(C(=O)OC)c2)[C@H]1c1cccc([N+](=O)[O-])c1 [Example 7, 3-(3-methoxycarbonylpyridinium)propyl (4S)-1,4-dihydro-2,6-dimethyl-5-methoxycarbonyl-4-(3-nitrophenyl)-pyridine-3-carboxylate iodide]	–
≥ 1000	COC(=O)C1=C(C)NC(C)=C(C(=O)OCCC[n+]2cccc(C#N)c2)[C@H]1c1cccc([N+](=O)[O-])c1 [Example 8, 3-(3-cyanopyridinium)propyl (4S)-1,4-dihydro-2,6-dimethyl-5-methoxycarbonyl-4-(3-nitrophenyl)-pyridine-3-carboxylate iodide]	–
≥ 1000	COC(=O)C1=C(C)NC(C)=C(C(=O)OCCC[n+]2ccc(N(C)C)cc2)[C@H]1c1cccc([N+](=O)[O-])c1 [Example 9, 3-(4-dimethylaminopyridinium)propyl (4S)-1,4-dihydro-2,6-dimethyl-5-methoxycarbonyl-4-(3-nitrophenyl)-pyridine-3-carboxylate iodide]	–
≥ 1000	COC(=O)C1=C(C)NC(C)=C(C(=O)OCCC[n+]2cccc(C(N)=O)c2)[C@H]1c1cccc([N+](=O)[O-])c1 [Example 10, 3-(3-carbamoylpyridinium)propyl (4S)-1,4-dihydro-2,6-dimethyl-5-methoxycarbonyl-4-(3-nitrophenyl)-pyridine-3-carboxylate iodide]	–
≥ 1000	COC(=O)C1=C(C)NC(C)=C(C(=O)OCc2cccc[n+]2C)[C@H]1c1cccc([N+](=O)[O-])c1 [Example 11, 3-(1-methyl-2-pyridinium)methyl (4S)-1,4-dihydro-2,6-dimethyl-5-methoxycarbonyl-4-(3-nitrophenyl)-pyridine-3-carboxylate iodide]	–
≥ 1000	COC(=O)C1=C(C)NC(C)=C(C(=O)OCCCc2ccc[n+](C)c2)[C@H]1c1cccc([N+](=O)[O-])c1 [Example 12, 3-(1-methyl-3-pyridinium)propyl (4S)-1,4-dihydro-2,6-dimethyl-5-methoxycarbonyl-4-(3-nitrophenyl)-pyridine-3-carboxylate iodide]	–
